From patent US5488051A, “Substituted 5,6-dihydro-5-oxo-1,4-dithiino-(2,3-d)-pyridazine-2,3-dicarbonitriles, compositions containing them and their use as antimicrobials” (The Dow Chemical Company, priority 1994, dated 1996)
≈ marks a conversion by molar mass, not a printed value. Where two headings read alike, the source gives them in different places.

Assays:
Bacillus subtilis (Bs) = test: MIC for Bacillus subtilis, nutrient agar; format: cell-based, Bacillus subtilis ATCC 8473; conditions: 30° C., 48 hours, read-out: Minimum Inhibitory Concentration (MIC), Bs
Protocol: (§1) The minimum inhibitory concentration (MIC) for the compounds listed in Table I is determined for 9 bacteria, using nutrient agar; and 7 yeast and fungi, using malt yeast agar. A one percent solution of the test compound is prepared in a mixture of acetone and water.
(§2) Nutrient agar is prepared at pH 6.8, representing a neutral medium, and at pH 8.2, representing an alkaline medium. The nutrient agars are prepared by adding 23 g of nutrient agar to one-liter of deionized water. In addition, the alkaline medium is prepared by adjusting a 0.04M solution of N-[tris-(hydroxymethyl)methyl]-glycine buffered deionized water with concentrated sodium hydroxide to a pH of 8.5.
(§3) The test tubes containing the malt yeast agar and the nutrient agar are cooled in a water bath until the temperature of the agar is 48° C. Then, an appropriate amount of the one percent solution of the test compound is added (except in the controls where no compound is added) to the respective test tubes so that the final concentrations are zero (0), 1.0, 2.5, 5, 10, 25, 50, 100, 250 and 500 parts per million of the test compound in each of the respective type of agar. The contents of each of the test tubes are then transferred to separate petri plates. After drying for 24 hours, the petri plates containing nutrient agar are inoculated with bacteria and those containing malt yeast agar are inoculated with yeast and fungi.
(§4) The inoculation with bacteria is accomplished by using the following procedure. Twenty-four hour-cultures of each of the bacteria are prepared by incubating the respective bacteria in tubes containing nutrient broth for 24 hours at 30° C. in a shaker. Dilutions of each of the 24 hour-cultures are made so that nine separate suspensions (one for each of the nine test bacteria) are made, each containing 10^8 colony forming units (CFU) per mL of suspension of a particular bacteria. Aliquots of 0.3 mL of each of the bacterial suspensions are used to fill the individual wells of Steer's Replicator. For each microbial suspension, 0.3 mL was used to fill three wells (i.e., three wells of 0.3 mL each) so that for the nine different bacteria, 27 wells are filled. The Steer's Replicator is then used to inoculate both the neutral and alkaline pH nutrient agar petri plates.
(§5) The inoculated petri plates are incubated at 30° C. for 48 hours and then read to determine if the test compound which is incorporated into the agar prevented growth of the respective bacteria.
(§6) Table II list the bacteria, yeast and fungi used in the MIC test described above along with their respective American Type Culture Collection (ATCC) identification numbers.

[1] = system: Enterobacter aerogenes (Ea); test: MIC for Enterobacter aerogenes, nutrient agar; format: cell-based, Enterobacter aerogenes ATCC 13048; conditions: Klebsiella aerogenes, nutrient agar, 30° C., 48 hours, read-out: Minimum Inhibitory Concentration (MIC), Ea
Protocol: as §1, §2, §3, §4, §5, §6

Escherichia coli (Ec) = test: MIC for Escherichia coli, nutrient agar; format: cell-based, Escherichia coli ATCC 11229; conditions: 30° C., 48 hours, read-out: Minimum Inhibitory Concentration (MIC), Ec
Protocol: as §1, §2, §3, §4, §5, §6

[2] = system: Klebsiella pneumonias (Kp); test: MIC for Klebsiella pneumonias, nutrient agar; format: cell-based, Klebsiella pneumonias ATCC 8308; conditions: 30° C., 48 hours, read-out: Minimum Inhibitory Concentration (MIC), Kp
Protocol: as §1, §2, §3, §4, §5, §6

Proteus vulgaris (Pv) = test: MIC for Proteus vulgaris, nutrient agar; format: cell-based, Proteus vulgaris ATCC 881; conditions: 30° C., 48 hours, read-out: Minimum Inhibitory Concentration (MIC), Pv
Protocol: as §1, §2, §3, §4, §5, §6

[3] = system: Pseudomonas aeruginosa (PRD-10); test: MIC for Pseudomonas aeruginosa PRD-10, nutrient agar; format: cell-based, Pseudomonas aeruginosa ATCC 15442; conditions: 30° C., 48 hours, read-out: Minimum Inhibitory Concentration (MIC), PRD
Protocol: as §1, §2, §3, §4, §5, §6

[4] = system: Pseudomonas aeruginosa (Pa); test: MIC for Pseudomonas aeruginosa, nutrient agar; format: cell-based, Pseudomonas aeruginosa ATCC 10145; conditions: 48 hours, read-out: Minimum Inhibitory Concentration (MIC), Pa
Protocol: as §1, §2, §3, §4, §5, §6

Salmonella choleraesuis = test: MIC for Salmonella choleraesuis, nutrient agar; format: cell-based, Salmonella choleraesuis ATCC 10708; conditions: Salmonella enterica, 30° C., 48 hours, read-out: Minimum Inhibitory Concentration (MIC), SC
Protocol: as §1, §2, §3, §4, §5, §6

[5] = system: Staphylococcus aureus (Sa); test: MIC for Staphylococcus aureus, nutrient agar; format: cell-based, Staphylococcus aureus ATCC 6538; conditions: 30° C., 48 hours, read-out: Minimum Inhibitory Concentration (MIC), Sa
Protocol: as §1, §2, §3, §4, §5, §6

Aspergillus niger (An) = test: MIC for Aspergillus niger, malt yeast agar; format: cell-based, Aspergillus niger ATCC 16404; conditions: malt yeast agar; 30° C., 72 hours for fungi; read-out: Minimum Inhibitory Concentration (MIC), An
Protocol: as §1
(§7) Malt yeast agar is prepared by adding 3 g yeast extract and 45 g malt agar per liter of deionized water. The specific agar is dispensed in 30 mL aliquots into 25×200 mm test tubes, capped and autoclaved for 15 minutes at 115° C.
as §3
(§8) The inoculation with the yeast and fungi is accomplished as follows. Cultures of yeast and fungi are incubated for seven days on malt yeast agar at 30° C. These cultures are used to prepare suspensions by the following procedure. A suspension of each organism is prepared by adding 10 mL of sterile saline and 10 microliters of octylphenoxy polyethoxy ethanol to the agar slant of yeast or fungi. The sterile saline/octylphenoxy polyethoxy ethanol solution is then agitated with a sterile swab to suspend the microorganism grown on the slant. Each resulting suspension is diluted into sterile saline (1 part suspension: 9 parts sterile saline). Aliquots of these dilutions are placed in individual wells of Steer's Replicator and petri plates inoculated as previously described. The petri plates are incubated at 30° C. and read after 48 hours for yeast and 72 hours for fungi.
as §6

Candida albicans (Ca) = test: MIC for Candida albicans, malt yeast agar; format: cell-based, Candida albicans ATCC 10231; conditions: malt yeast agar; 30° C., 48 hours for yeast; read-out: Minimum Inhibitory Concentration (MIC), Ca
Protocol: as §1, §7, §3, §8, §6

[6] = system: Penicillium chrysogenum (Pc); test: MIC for Penicillium chrysogenum, malt yeast agar; format: cell-based, Penicillium chrysogenum ATCC 9480; conditions: malt yeast agar; 30° C., 72 hours for fungi; read-out: Minimum Inhibitory Concentration (MIC), PC
Protocol: as §1, §7, §3, §8, §6

Saccharomyces cerevisiae = test: MIC for Saccharomyces cerevisiae, malt yeast agar; format: cell-based, Saccharomyces cerevisiae ATCC 4105; conditions: malt yeast agar, 30° C., 48 hours for yeast, read-out: Minimum Inhibitory Concentration (MIC), Sc
Protocol: as §1, §7, §3, §8, §6

Trichoderma viride (Tv) = test: MIC for Trichoderma viride, malt yeast agar; format: cell-based, Trichoderma viride ATCC 8678; conditions: malt yeast agar; 30° C., 72 hours for fungi; read-out: Minimum Inhibitory Concentration (MIC), Tv
Protocol: as §1, §7, §3, §8, §6

[7] = system: Aureobasidium pullulan (Ap); test: MIC for Aureobasidium pullulan, malt yeast agar; format: cell-based, Aureobasidium pullulan ATCC 16622; conditions: malt yeast agar; 30° C.; 48 hours for yeast and 72 hours for fungi; read-out: Minimum Inhibitory Concentration (MIC), Ap
Protocol: as §1, §7, §3, §8, §6

Fusarium oxysporum (Fo) = test: MIC for Fusarium oxysporum, malt yeast agar; format: cell-based, Fusarium oxysporum ATCC 48112; conditions: malt yeast agar; 30° C., 72 hours for fungi; read-out: Minimum Inhibitory Concentration (MIC), Fo
Protocol: as §1, §7, §3, §8, §6

N#CC1=C(C#N)Sc2c(cnn(Cc3ccccc3)c2=O)S1 [I, 5,6-dihydro-6-(phenylmethyl)-5-oxo-1,4-dithiino-(2,3-d)-pyridazine-2,3-dicarbonitrile]
MIC (Bacillus subtilis (Bs); pH 6.8, nutrient agar): < 10 µg/mL
MIC (Bacillus subtilis (Bs); pH 8.2, nutrient agar): 100 µg/mL (≈ 308 µM)
MIC ([1]; pH 6.8): > 500 µg/mL
MIC ([1]; pH 8.2): > 500 µg/mL
MIC (Escherichia coli (Ec); pH 6.8, nutrient agar): > 500 µg/mL
MIC (Escherichia coli (Ec); pH 8.2, nutrient agar): > 500 µg/mL
MIC ([2]; pH 6.8, nutrient agar): 100 µg/mL (≈ 308 µM)
MIC ([2]; pH 8.2, nutrient agar): > 500 µg/mL
MIC (Proteus vulgaris (Pv); pH 6.8, nutrient agar): 100 µg/mL (≈ 308 µM)
MIC (Proteus vulgaris (Pv); pH 8.2, nutrient agar): > 500 µg/mL
MIC ([3]; pH 6.8, nutrient agar): > 500 µg/mL
MIC ([3]; pH 8.2, nutrient agar): > 500 µg/mL
MIC ([4]; pH 6.8, 30° C.): 250 µg/mL (≈ 771 µM)
MIC ([4]; pH 8.2, 30° C.): > 500 µg/mL
MIC (Salmonella choleraesuis; pH 6.8, nutrient agar): 250 µg/mL (≈ 771 µM)
MIC (Salmonella choleraesuis; pH 8.2, nutrient agar): > 500 µg/mL
MIC ([5]; pH 6.8, nutrient agar): 50 µg/mL (≈ 154 µM)
MIC ([5]; pH 8.2, nutrient agar): > 500 µg/mL
MIC (Aspergillus niger (An)): 25 µg/mL (≈ 77.1 µM)
MIC (Candida albicans (Ca)): < 10 µg/mL
MIC [6]: 25 µg/mL (≈ 77.1 µM)
MIC (Saccharomyces cerevisiae): < 10 µg/mL
MIC (Trichoderma viride (Tv)): 25 µg/mL (≈ 77.1 µM)
MIC [7]: < 10 µg/mL
MIC (Fusarium oxysporum (Fo)): < 10 µg/mL

N#CC1=C(C#N)Sc2c(cnn(-c3ccc([N+](=O)[O-])cc3)c2=O)S1 [H, 5,6-dihydro-6-(4-nitrophenyl)-5-oxo-1,4-dithiino-(2,3-d)-pyridazine-2,3-dicarbonitrile]
MIC (Bacillus subtilis (Bs); pH 6.8, nutrient agar): > 500 µg/mL
MIC (Bacillus subtilis (Bs); pH 8.2, nutrient agar): > 500 µg/mL
MIC ([1]; pH 6.8): > 500 µg/mL
MIC ([1]; pH 8.2): > 500 µg/mL
MIC (Escherichia coli (Ec); pH 6.8, nutrient agar): > 500 µg/mL
MIC (Escherichia coli (Ec); pH 8.2, nutrient agar): > 500 µg/mL
MIC ([2]; pH 6.8, nutrient agar): > 500 µg/mL
MIC ([2]; pH 8.2, nutrient agar): > 500 µg/mL
MIC (Proteus vulgaris (Pv); pH 6.8, nutrient agar): > 500 µg/mL
MIC (Proteus vulgaris (Pv); pH 8.2, nutrient agar): > 500 µg/mL
MIC ([3]; pH 6.8, nutrient agar): > 500 µg/mL
MIC ([3]; pH 8.2, nutrient agar): > 500 µg/mL
MIC ([4]; pH 6.8, 30° C.): > 500 µg/mL
MIC ([4]; pH 8.2, 30° C.): > 500 µg/mL
MIC (Salmonella choleraesuis; pH 6.8, nutrient agar): > 500 µg/mL
MIC (Salmonella choleraesuis; pH 8.2, nutrient agar): > 500 µg/mL
MIC ([5]; pH 6.8, nutrient agar): > 500 µg/mL
MIC ([5]; pH 8.2, nutrient agar): > 500 µg/mL
MIC (Aspergillus niger (An)): > 500 µg/mL
MIC (Candida albicans (Ca)): > 500 µg/mL
MIC [6]: > 500 µg/mL
MIC (Saccharomyces cerevisiae): > 500 µg/mL
MIC (Trichoderma viride (Tv)): > 500 µg/mL
MIC [7]: > 500 µg/mL
MIC (Fusarium oxysporum (Fo)): > 500 µg/mL

N#CC1=C(C#N)Sc2c(cnn(-c3ccc(Cl)c(Cl)c3)c2=O)S1 [F, 5,6-dihydro-6-(3,4-dichlorophenyl)-5-oxo-1,4-dithiino-(2,3-d)-pyridazine-2,3-dicarbonitrile]
MIC (Bacillus subtilis (Bs); pH 6.8, nutrient agar): 100 µg/mL (≈ 264 µM)
MIC (Bacillus subtilis (Bs); pH 8.2, nutrient agar): 500 µg/mL (≈ 1320 µM)
MIC ([1]; pH 6.8): > 500 µg/mL
MIC ([1]; pH 8.2): > 500 µg/mL
MIC (Escherichia coli (Ec); pH 6.8, nutrient agar): > 500 µg/mL
MIC (Escherichia coli (Ec); pH 8.2, nutrient agar): > 500 µg/mL
MIC ([2]; pH 6.8, nutrient agar): > 500 µg/mL
MIC ([2]; pH 8.2, nutrient agar): > 500 µg/mL
MIC (Proteus vulgaris (Pv); pH 6.8, nutrient agar): > 500 µg/mL
MIC (Proteus vulgaris (Pv); pH 8.2, nutrient agar): > 500 µg/mL
MIC ([3]; pH 6.8, nutrient agar): > 500 µg/mL
MIC ([3]; pH 8.2, nutrient agar): > 500 µg/mL
MIC ([4]; pH 6.8, 30° C.): > 500 µg/mL
MIC ([4]; pH 8.2, 30° C.): > 500 µg/mL
MIC (Salmonella choleraesuis; pH 6.8, nutrient agar): > 500 µg/mL
MIC (Salmonella choleraesuis; pH 8.2, nutrient agar): > 500 µg/mL
MIC ([5]; pH 6.8, nutrient agar): 100 µg/mL (≈ 264 µM)
MIC ([5]; pH 8.2, nutrient agar): 250 µg/mL (≈ 659 µM)
MIC (Aspergillus niger (An)): 250 µg/mL (≈ 659 µM)
MIC (Candida albicans (Ca)): 250 µg/mL (≈ 659 µM)
MIC [6]: 250 µg/mL (≈ 659 µM)
MIC (Saccharomyces cerevisiae): 250 µg/mL (≈ 659 µM)
MIC (Trichoderma viride (Tv)): > 500 µg/mL
MIC [7]: 100 µg/mL (≈ 264 µM)
MIC (Fusarium oxysporum (Fo)): 500 µg/mL (≈ 1320 µM)
